In patent US7314644B2, “Extraction and purification method of active constituents from stem of Lonicera japonica thunb., its usage for anti-inflammatory and analgesic drug” (SK Chemicals Co., Ltd., priority 2002, dated 2008):

Tests used:
Format in all cases: in vivo
[1] = system: ICR mice; experiment: Arachidonic acid induced ear edema test
[2] = system: ICR mice; experiment: Acetic acid induced writhing test
[3] = system: SD rats; experiment: Toxicity test (lethal dose, symptoms, weight, autopsy)
Protocol: The active constituents of honeysuckle stem and sweroside, in the amount of 1.0 g/kg, 1.5 g/kg and 2.0 g/kg, were administered through the tail veins of SD rats (body weight: 120 to 170 g, 5 male and female rats for each administration dose, SLC, Japan), respectively, which had been fasted for 4 hours. […] An autopsy was conducted to identify presence of any abnormalities of organs.
The lethal dose of the active constituents of honeysuckle stem and sweroside was both over 5.0 g/kg for oral administration (no dead rats observed), and over 2.0 g/kg for intravenous injection (no dead rats observed).

[4] = system: ICR mice; experiment: Croton oil induced ear edema test

C=C[C@H]1[C@H](O[C@@H]2O[C@H](CO)[C@@H](O)[C@H](O)[C@H]2O)OC=C2C(=O)OCC[C@H]21 [Sweroside, sweroside]
Rate of Inhibition (%) ([1]; Table 10, tail vein, 0.1 mg/kg): 48.3% | Rate of Inhibition (%) ([1]; Table 10, tail vein, 1 mg/kg): 55.1% | Rate of Inhibition (%) ([1]; Table 10, tail vein, 10 mg/kg): 69.1% | Rate of Inhibition (%) ([1]; Table 11, oral administration, 1 mg/kg): 29.0% | Rate of Inhibition (%) ([1]; Table 11, oral administration, 10 mg/kg): 34.7% | Rate of Inhibition (%) ([1]; Table 11, oral administration, 100 mg/kg): 45.7% | Rate of Inhibition (%) ([2]; Table 12, tail vein, 0.1 mg/kg): 74.6% | Rate of Inhibition (%) ([2]; Table 12, tail vein, 1 mg/kg): 86.4% | Rate of Inhibition (%) ([2]; Table 12, tail vein, 10 mg/kg): 89.7% | Rate of Inhibition (%) ([2]; Table 13, oral administration, 1 mg/kg): 65.9% | Rate of Inhibition (%) ([2]; Table 13, oral administration, 10 mg/kg): 79.1% | Rate of Inhibition (%) ([2]; Table 13, oral administration, 100 mg/kg): 87.9% | general symptoms ([3]; 2.0 g/kg intravenously injected, restored soon): increased respiration counts and decreased activity for about 10 minutes | autopsy result ([3]; as is the case with the control groups): no abnormalities | weight change ([3]; observed for 2 weeks after administration): no change in weight | Rate of Inhibition (%) ([4]; Table 8, tail vein, 0.1 mg/kg): 49.8% | Rate of Inhibition (%) ([4]; Table 8, tail vein, 1 mg/kg): 56.2% | Rate of Inhibition (%) ([4]; Table 8, tail vein, 10 mg/kg): 65.7% | Rate of Inhibition (%) ([4]; Table 9, oral administration, 1 mg/kg): 31.9% | Rate of Inhibition (%) ([4]; Table 9, oral administration, 10 mg/kg): 43.1% | Rate of Inhibition (%) ([4]; Table 9, oral administration, 100 mg/kg): 57.8%
